For assay [1], the system named is HCV replicon (BB7 sequence) in Huh-7-Clone A cells. The experiment in a line: HCV replicon assay: ELISA of NS5A protein in replicon-containing cells (Inhibition of Viral RNA Replication). In kind it is cell-based. Conditions: Hepatitis C virus, read-out: Replicon. In outline:
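Huh-7-Clone A cells carrying subgenomic BB7 HCV replicon (G418-selectable) incubated 72 h with compound. NS5A protein quantified by cell ELISA: glutaraldehyde fixation, anti-NS5A monoclonal plus HRP secondary, TMB read at OD 650 nm. EC50 derived from 8-point serial dilution dose curve.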

The next assay deals with T1, HCV NS5B (Hepatitis C virus genotype 1b, UniProt Q9WMX2).
T1 construct: fusion protein, of which the carboxyl terminal 21 amino acids were removed to enhance its solubility; His tag (GSHHHHHH); made in house; host or cells: E. coli
Description: Inhibition of viral RNA-dependent RNA polymerase (RdRp), in vitro biochemical assay. On the set-up: species or system HCV genotype 1b virus (BB7). The note with it: read-out: HCV pol-BB7 IC50. In outline:
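Purified recombinant NS5B from a genotype 1b consensus (BB7), His-tagged, E. coli-expressed, with the C-terminal 21 residues deleted. Inhibition of RdRp activity in vitro was measured, and IC50 is the concentration giving 50% inhibition.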

Where [2] appears, read: ranges of EC50 in HCV replicon assay.
The mark [3] stands for this setting: HCV NS5B RdRp, BB7, reported as range class.
Where [4] appears, read: HCV replicon assay, ranges of EC50.
The mark [5] stands for this setting: HCV NS5B RdRp, BB7, class symbols A-D.
Where [6] appears, read: Huh-7-Clone A, NS5A ELISA, 72-hour incubation, ranges of EC50.
The mark [7] stands for this setting: purified His-tagged NS5B (BB7), carboxyl terminal 21 amino acids removed.
Where [8] appears, read: HCV replicon assay, ranges of 50% effective concentration (EC50).
The mark [9] stands for this setting: HCV NS5B polymerase, BB7 (genotype 1b), values given as range classes A-D.
Where [10] appears, read: HCV NS5B RdRp, BB7, activity class.

Read-outs that look alike come from different tables or passages of the source.

Broadly, the IC50 is the concentration at which inhibition is half-maximal. Turning to `CNC(=O)c1c(-c2ccc(F)cc2)oc2cc(NS(C)(=O)=O)c(OC)cc12` [Example 122, 2-(4-Fluoro-phenyl)-6-methanesulfonylamino-5-methoxy-benzofuran-3-carboxylic acid methylamide], in assay [1] (setting [2]), the EC50 was under 1000 nM. For the same molecule, the IC50 on HCV NS5B (HCV NS5B RdRp, BB7 genotype 1b) is at most 500 nM.
Regarding `CNC(=O)c1c(-c2ccc(F)cc2)oc2cc(-c3ncc[nH]3)c(OC(C)C)cc12` [Example 244, 2-(4-Fluoro-phenyl)-6-(1H-imidazol-2-yl)-5-isopropoxy-benzofuran-3-carboxylic acid methylamide], in assay [1] (HCV replicon, range of EC50), the EC50 is under 1000 nM. Moreover, the IC50 on HCV NS5B (setting [3]) is at most 500 nM.
Consider `CNC(=O)c1c(-c2ccc(F)cc2)oc2cc(N(Cc3nccs3)S(C)(=O)=O)c(OC(C)C)cc12` [Example 285, 2-(4-Fluoro-phenyl)-5-isopropoxy-6-(methanesulfonyl-thiazol-2-ylmethyl-amino)-benzofuran-3-carboxylic acid methylamide], for which, in assay [1] (setting [4]), the EC50 is under 1000 nM. Moreover, the concentration for half-maximal inhibition (IC50) on HCV NS5B (setting [5]) was at most 500 nM.
On to `CNC(=O)c1c(-c2ccc(F)cc2)oc2cc(NS(C)(=O)=O)c(OC(C)C)cc12` [Example 21, 2-(4-Fluoro-phenyl)-5-isopropoxy-6-methanesulfonylamino-benzofuran-3-carboxylic acid methylamide], for which the EC50 in assay [1] (setting [6]) was under 1000 nM. Besides, the IC50 on HCV NS5B (setting [7]) is at most 500 nM.
The corresponding values for `CNC(=O)c1c(-c2ccc(F)cc2)oc2cc(C3CCCN3C(C)=O)c(OC)cc12` (centres unmarked) [Example 47, 6-(1-Acetyl-pyrrolidin-2-yl)-2-(4-fluoro-phenyl)-5-methoxy-benzofuran-3-carboxylic acid methylamide] are under 1000 nM and at most 500 nM.
As for `CNC(=O)c1c(-c2ccc(F)cc2)oc2cc(N3CCN(C)CC3)c(OC(C)C)cc12` [Example 132, 2-(4-Fluoro-phenyl)-5-isopropoxy-6-(4-methyl-piperazin-1-yl)-benzofuran-3-carboxylic acid methylamide], the EC50 in assay [1] (setting [2]) was over 30000 nM. Also, the IC50 at HCV NS5B (HCV NS5B RdRp, BB7 genotype 1b) lay in the range of 5000 to 30000 nM.
On to `CNC(=O)c1c(-c2ccc(F)cc2)oc2cc(N3CCOCC3)c(OCc3cccc(C(=O)OC)c3)cc12` [Example 263, 3-[2-(4-Fluoro-phenyl)-3-methylcarbamoyl-6-morpholin-4-yl-benzofuran-5-yloxymethyl]-benzoic acid methyl ester], for which, in assay [1] (setting [4]), the EC50 is under 10000 nM. Further, the IC50 on HCV NS5B (setting [5]) was at most 500 nM.
For the molecule `CNC(=O)c1c(-c2ccc(N3CCCC3)cc2)oc2ccc(OC(C)C)cc12` [Example 95, 5-Isopropoxy-2-(4-pyrrolidin-1-yl-phenyl)-benzofuran-3-carboxylic acid methylamide], the EC50 in assay [1] (setting [2]) was under 30000 nM. The IC50 at HCV NS5B (HCV NS5B RdRp, BB7 genotype 1b) fell in the range of 5000 to 30000 nM.
In the case of `CNC(=O)c1c(-c2ccc(F)cc2)oc2cc(N(C)S(C)(=O)=O)c(OCc3nccn3C)cc12` [Example 398, 2-(4-Fluoro-phenyl)-6-(methanesulfonyl-methyl-amino)-5-(1-methyl-1H-imidazol-2-ylmethoxy)-benzofuran-3-carboxylic acid methylamide], the EC50 in assay [1] (setting [8]) is under 1000 nM. Also, the IC50 at HCV NS5B (setting [9]) was at most 500 nM.
Consider `CNC(=O)c1c(-c2ccc(F)cc2)oc2cc(N(C)S(C)(=O)=O)c(OCc3cccc(OC)c3)cc12` [Example 325, 2-(4-Fluoro-phenyl)-6-(methanesulfonyl-methyl-amino)-5-(3-methoxy-benzyloxy)-benzofuran-3-carboxylic acid methylamide], for which the EC50 in assay [1] (setting [4]) was under 1000 nM. Moreover, the IC50 at HCV NS5B (setting [5]) was at most 500 nM.
The corresponding values for `CNC(=O)c1c(-c2ccc(F)cc2)oc2cc(-c3nnc[nH]3)c(OC(C)C)cc12` [Example 279, 2-(4-Fluoro-phenyl)-5-isopropoxy-6-(4H-[1,2,4]triazol-3-yl)-benzofuran-3-carboxylic acid methylamide] are under 30000 nM and at most 500 nM.
Turning to `CNC(=O)c1c(-c2ccccc2)oc2cc(C)c(OC)cc12` [Example 14, 5-Methoxy-6-methyl-2-phenyl-benzofuran-3-carboxylic acid methylamide], the EC50 in assay [1] (setting [6]) is under 1000 nM. In addition, at HCV NS5B (setting [7]), the IC50 was at most 500 nM.
Consider `CNC(=O)c1c(-c2ccc(F)cc2)oc2cc(OC)c(O)cc12` [Example 165, 2-(4-Fluoro-phenyl)-5-hydroxy-6-methoxy-benzofuran-3-carboxylic acid methylamide], for which the EC50 in assay [1] (setting [2]) was over 30000 nM. Further, the IC50 on HCV NS5B (HCV NS5B RdRp, BB7 genotype 1b) is 5000 to 30000 nM.
As for `CNC(=O)c1c(-c2ccc(C(F)(F)F)cc2)oc2ccc(OC)cc12` [Example 56, 5-Methoxy-2-(4-trifluoromethyl-phenyl)-benzofuran-3-carboxylic acid methylamide], the EC50 in assay [1] (setting [6]) was under 10000 nM. Also, the IC50 on HCV NS5B (setting [7]) lay in the range of 500 to 5000 nM.
For the molecule `CNC(=O)c1c(-c2ccc(F)cc2)oc2cc(N)c(O)cc12` [Example 182, 6-Ainino-2-(4-fluoro-phenyl)-5-hydroxy-benzofuran-3-carboxylic acid methylamide], in assay [1] (HCV replicon, range of EC50), the EC50 was under 30000 nM. The IC50 on HCV NS5B (setting [3]) lay in the range of 500 to 5000 nM.
On to `CNC(=O)c1c(-c2ccc(F)cc2)oc2c(C)cc(OC(C)C)cc12` [Example 80, 2-(4-Fluoro-phenyl)-5-isopropoxy-7-methyl-benzufuran-3-carboxylic acid methylamide], for which the EC50 in assay [1] (setting [6]) is under 30000 nM. The IC50 at HCV NS5B (setting [7]) was 500 to 5000 nM.
Take `CNC(=O)c1c(-c2ccc(F)c(O)c2)oc2ccc(OC(C)C)cc12` [Example 105, 2-(4-Fluoro-3-hydroxy-phenyl)-5-isopropoxy-benzofuran-3-carboxylic acid methylamide]: the EC50 in assay [1] (setting [2]) is under 30000 nM. Besides, the concentration for half-maximal inhibition (IC50) on HCV NS5B (HCV NS5B RdRp, BB7 genotype 1b) lay within 5000 to 30000 nM.
In the case of `CCc1ccc2oc(-c3ccccc3)c(C(=O)NC)c2c1` [Example 84, 5-Ethyl-2-phenyl-benzofuran-3-carboxylic acid methylamide], in assay [1] (setting [6]), the EC50 is under 30000 nM. At HCV NS5B (setting [7]), the IC50 fell in the range of 500 to 5000 nM.
On to `CNC(=O)c1c(-c2ccc(F)cc2)oc2cc(NCc3ccoc3)c(OC(C)C)cc12` [Example 112, 2-(4-Fluoro-phenyl)-6-[(furan-3-ylmethyl)-amino]-5-isopropoxy-benzofuran-3-carboxylic acid methylamide], for which the EC50 in assay [1] (setting [2]) was under 1000 nM. Moreover, the IC50 at HCV NS5B (HCV NS5B RdRp, BB7 genotype 1b) was at most 500 nM.
On to `CNC(=O)c1c(-c2ccc(F)cc2)oc2cc(-c3ccnn3C)c(OC(C)C)cc12` [Example 231, 2-(4-Fluoro-phenyl)-5-isopropoxy-6-(2-methyl-2H-pyrazol-3-yl)-benzofuran-3-carboxylic acid methylamide], for which the EC50 in assay [1] (HCV replicon, range of EC50) is under 1000 nM. Also, the IC50 at HCV NS5B (setting [3]) was at most 500 nM.
Take `CCOc1ccc2oc(-c3ccccc3)c(C(=O)NC)c2c1` [Example 57, 5-Ethoxy-2-phenyl-benzofuran-3-carboxylic acid methylamide]: in assay [1] (setting [6]), the EC50 is over 30000 nM. The IC50 on HCV NS5B (setting [7]) is 500 to 5000 nM.
`CNC(=O)c1c(-c2ccc(C#N)cc2)oc2ccc(OC(C)C)cc12` [Example 106, 2-(4-Cyano-phenyl)-5-isopropoxy-benzofuran-3-carboxylic acid methylamide]: the EC50 in assay [1] (setting [2]) is under 30000 nM. The IC50 at HCV NS5B (HCV NS5B RdRp, BB7 genotype 1b) is 500 to 5000 nM.
In the case of `CNC(=O)c1c(-c2ccc(F)cc2)oc2cc(-c3c(C)noc3C)c(OCC3CC3)cc12` [Example 428, 5-Cyclopropylmethoxy-6-(3,5-dimethyl-isoxazol-4-yl)-2-(4-fluoro-phenyl)-benzofuran-3-carboxylic acid methylamide], the EC50 in assay [1] (setting [8]) was under 1000 nM. Further, the IC50 at HCV NS5B (setting [9]) was at most 500 nM.
As for `CNC(=O)c1c(-c2ccc(F)cc2)oc2cc(N(C)S(C)(=O)=O)c(OCC(=O)c3ccc(F)cc3)cc12` [Example 360, 2-(4-Fluoro-phenyl)-5-[2-(4-fluoro-phenyl)-2-oxo-ethoxy]-6-(methanesulfonyl-methyl-amino)-benzofuran-3-carboxylic acid methylamide], the EC50 in assay [1] (setting [4]) is under 1000 nM. In addition, at HCV NS5B (setting [10]), the IC50 is at most 500 nM.
Take `CNC(=O)c1c(-c2ccc(F)cc2)oc2cc(N3CCOCC3)c(OCc3ccc(C(=O)O)cc3)cc12` [Example 267, 4-[2-(4-Fluoro-phenyl)-3-methylcarbamoyl-6-morpholin-4-yl-benzofuran-5-yloxymethyl]-benzoic acid]: the EC50 in assay [1] (setting [4]) was under 10000 nM. For the same molecule, the IC50 at HCV NS5B (setting [5]) is at most 500 nM.
As for `CNC(=O)c1c(-c2ccc(F)cc2)oc2cc(N(C)S(C)(=O)=O)c(OCC(=O)O)cc12` [Example 386, [2-(4-Fluoro-phenyl)-6-(methanesulfonyl-methyl-amino)-3-methylcarbamoyl-benzofuran-5-yloxy]-acetic acid], in assay [1] (setting [8]), the EC50 was under 30000 nM. Besides, the IC50 on HCV NS5B (setting [9]) was at most 500 nM.
In the case of `CCNc1cc2oc(-c3ccc(F)cc3)c(C(=O)NC)c2c(Cl)c1O` [Example 341, 4-Chloro-6-ethylamino-2-(4-fluoro-phenyl)-5-hydroxy-benzofuran-3-carboxylic acid methylamide], the EC50 in assay [1] (setting [4]) is over 100000 nM. For the same molecule, on HCV NS5B (setting [10]), the IC50 lay within 500 to 5000 nM.
Take `CNC(=O)c1c(-c2ccc(F)cc2)oc2cc(-c3cnco3)c(OC(C)C)cc12` [Example 168, 2-(4-Fluoro-phenyl)-5-isopropoxy-6-oxazol-5-yl-benzofuran-3-carboxylic acid methylamide]: the EC50 in assay [1] (setting [2]) was under 10000 nM. Also, at HCV NS5B (HCV NS5B RdRp, BB7 genotype 1b), the IC50 is at most 500 nM.

(Values after patent US7265152B2 (ViroPharma Incorporated, priority 2002, dated 2007).)
